Data: ChEMBL document CHEMBL1201862, “PubChem BioAssay data set” (2004)
Calls of active or inactive are those of the source. For most assays here, no stated cut-off is given here; in the data, actives have a measured EC50 and inactives only a lower limit.

Tested on: not listed separately
Test: viability of uninfected HEp-2 cells – cell-based, HTS, cytotoxicity control for RSV inhibitor project, dose response (AID 2410)
Format: functional
Conditions: human respiratory syncytial virus
In the case of `CCOc1ccc2c(c1)c1nnc(SCC3CCCO3)nc1n2C` (configuration not stated), the CC50 is reported as > 50 µM (active).

Tested on: not listed separately
Test: luciferase reporter signal suppression in cells – H4 neuroglioma cells, luminescence, dose response (AID 1990)
Format: functional, cell-based
Conditions: not given
For `COc1ccc(CN2CCN(S(=O)(=O)c3ccccc3)CC2)cc1Br`, the EC50 was > 120 µM (not active).

Tested on: not listed separately
Test: cells
Format: functional, cell-based
Conditions: not given
With `CC1CN=C(/C=C(\O)c2ccc(Br)cc2)C(=O)N1` (configuration not stated) the EC50 was > 350 µM (not active). For `CN(C)/C=N/C(=O)c1cn(-c2ccc(F)cc2)c(=O)c2ccccc12`, the EC50 was > 350 µM (not active). In the case of `CCn1c(N2CCC(Cc3ccccc3)CC2)nc2c1c(=O)[nH]c(=O)n2C`, the EC50 is reported as > 350 µM (not active). For `CCCC(C)NC(=O)CN1C(=O)NC2(CCc3ccccc32)C1=O` (configuration not stated), the EC50 was > 350 µM (not active). In the case of `O/C(=C(\C([S-])=Nc1cccc2ccccc12)[n+]1ccccc1)c1cccs1`, the EC50 is reported as > 350 µM (not active). For `Cc1ccc(-c2cc(C(=O)Nc3cccnc3)[nH]n2)c(O)c1C`, the EC50 was > 350 µM (not active). In the case of `Cc1cc(C)c(C(=O)N2CCCC(N3CCN(c4cccc(C(F)(F)F)c4)CC3)C2)o1` (configuration not stated), the EC50 is reported as > 350 µM (not active). For `CCOc1ccc2c(c1)c1nnc(SCC3CCCO3)nc1n2C` (configuration not stated), the EC50 was > 350 µM (not active). For `COC(=O)Cc1ccc(NC(S)=NC(C)(C)C)cc1`, the EC50 was > 350 µM (not active).

Tested on: not listed separately
Test: Luminescence Cell-Based Dose Response HTS to Identify Inhibitors of 5'UTR Stem-Loop Driven Prion Protein mRNA Translation in H4 Neuroglioblastoma Cells. [Related pubchem assays: 1827 (Project Summary), 1813 (Primary HTS)]
Format: functional
Conditions: not given
With `COc1ccc(CN2CCN(S(=O)(=O)c3ccccc3)CC2)cc1Br` the EC50 was > 120 µM (not active). In the case of `CC1CN=C(/C=C(\O)c2ccc(Br)cc2)C(=O)N1` (configuration not stated), the EC50 is reported as 11.6 µM (inconclusive).

Target: T1, Heat shock factor protein 1 (Mus musculus, UniProt P38532)
T1 sequence (P38532 whole entry): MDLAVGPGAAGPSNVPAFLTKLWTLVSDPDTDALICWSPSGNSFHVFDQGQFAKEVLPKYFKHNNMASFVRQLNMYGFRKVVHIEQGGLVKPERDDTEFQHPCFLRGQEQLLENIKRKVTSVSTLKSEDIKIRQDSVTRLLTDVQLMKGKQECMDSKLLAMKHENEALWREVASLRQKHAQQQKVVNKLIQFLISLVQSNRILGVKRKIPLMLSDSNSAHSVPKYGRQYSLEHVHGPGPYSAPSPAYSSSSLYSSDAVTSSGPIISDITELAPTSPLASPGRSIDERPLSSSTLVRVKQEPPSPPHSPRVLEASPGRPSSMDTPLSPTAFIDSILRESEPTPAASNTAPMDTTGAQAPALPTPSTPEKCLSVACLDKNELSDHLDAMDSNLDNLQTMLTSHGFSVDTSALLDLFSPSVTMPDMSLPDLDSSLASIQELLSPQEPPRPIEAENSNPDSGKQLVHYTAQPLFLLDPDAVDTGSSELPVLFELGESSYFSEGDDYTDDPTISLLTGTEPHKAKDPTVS
Test: decrease of HSF1-responsive luciferase luminescence – cell-based, NIH3T3, dose retest, confirmation (AID 2382);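 further: NIH3T3 fibroblasts with HSF1-driven luciferase reporter stressed by proteasome inhibitor MG132; luminescence from HSF1-driven luciferase expression after 8 hours of MG132 stress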
Format: functional
Conditions: not given
In the case of `C=CCn1c2ccccc2c2nnc(SCC(=O)O)nc21`, the EC50 is reported as > 195 µM (not active). In the case of `C/C(=N\Nc1nc(-c2ccccc2)cs1)c1cccs1`, the EC50 is reported as > 195 µM (not active). For `COc1ccc(CN2CCN(S(=O)(=O)c3ccccc3)CC2)cc1Br`, the EC50 was > 195 µM (not active). For `CCOC(=O)N1CCC(Nc2ncnc3c2cnn3-c2ccc(Cl)cc2)CC1`, the EC50 was 89.4 µM (active). In the case of `OCC[C@@H]1C[C@@H](O)[C@H](O)[C@@]2(Cc3ccccc3CO2)O1`, the EC50 is reported as > 195 µM (not active). In the case of `Cc1ccc(S(=O)(=O)Nc2cccnc2)c(C)c1C`, the EC50 is reported as > 195 µM (not active). For `Cc1ccc([N+](=O)[O-])cc1NC(=O)CSc1n[nH]c(-c2cccnc2)n1`, the EC50 was > 195 µM (not active). For `COc1ccc(-n2c(-c3cccc(OC)c3)nc(=S)c3c2CCCC3)cc1`, the EC50 was > 195 µM (not active). With `CC1=NN(C(N)=S)C(C)(C)C1` the EC50 was > 195 µM (not active). For `COc1cccc(N2C(=O)N(c3ccccc3)C3CS(=O)(=O)CC32)c1` (configuration not stated), the EC50 was > 195 µM (not active). In the case of `CC(C)CCNC(=O)Cn1cc2c(n1)CCCCC2`, the EC50 is reported as > 195 µM (not active).

Tested on: not listed separately
Test: alpha-synuclein stem-loop luciferase translation blockers – H4 neuroglioma cells, luminescence, confirmation (AID 1988)
Format: functional, cell-based
Conditions: not given
In the case of `COc1ccc(CN2CCN(S(=O)(=O)c3ccccc3)CC2)cc1Br`, the EC50 is reported as > 120 µM (not active).

Target: Luciferin 4-monooxygenase (Photinus pyralis, UniProt P08659)
Sequence (P08659 whole entry): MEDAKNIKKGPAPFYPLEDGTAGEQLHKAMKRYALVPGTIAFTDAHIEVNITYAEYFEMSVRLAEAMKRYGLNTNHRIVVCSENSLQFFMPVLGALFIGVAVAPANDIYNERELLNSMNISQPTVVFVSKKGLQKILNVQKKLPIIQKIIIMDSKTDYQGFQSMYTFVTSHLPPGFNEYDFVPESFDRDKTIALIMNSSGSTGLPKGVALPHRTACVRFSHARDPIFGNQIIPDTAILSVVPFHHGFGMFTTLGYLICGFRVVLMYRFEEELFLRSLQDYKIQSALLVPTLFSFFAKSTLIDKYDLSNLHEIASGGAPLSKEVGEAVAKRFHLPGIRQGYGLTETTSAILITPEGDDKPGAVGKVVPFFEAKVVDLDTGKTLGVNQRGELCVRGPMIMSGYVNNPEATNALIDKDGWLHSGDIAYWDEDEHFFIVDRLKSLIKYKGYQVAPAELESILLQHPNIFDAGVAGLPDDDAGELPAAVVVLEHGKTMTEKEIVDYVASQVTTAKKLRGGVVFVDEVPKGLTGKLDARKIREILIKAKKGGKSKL
Test: inhibition of purified Photinus pyralis luciferase – biochemical, luminescence, dose response (AID 1891)
Conditions: not given
For `CC(=O)c1ccc(NC(=O)Nc2ccc([N+](=O)[O-])cc2C)cc1`, the EC50 was > 112 µM (not active). With `CCC(Cc1ccccc1)NS(=O)(=O)c1c(C)nc2sccn2c1=O` (configuration not stated) the EC50 was > 112 µM (not active). With `COc1ccc(/C=C2\CCc3c2nc2ccccc2c3C(=O)O)cc1OC` the EC50 was 6.42 µM (active). For `Cc1ccc(CNC(=O)c2cnc3ccccc3n2)cc1`, the EC50 was > 112 µM (not active).

Tested on: not listed separately
Test: Luminescence Cell-Based Dose Confirmation HTS to Identify Inhibitors of Platelet Dense Granule Release. [Related pubchem assays: 1663 (Primary HTS), 1678 (Summary of Project)]
Format: functional
Conditions: not given
In the case of `CC(=O)c1ccc(NC(=O)Nc2ccc([N+](=O)[O-])cc2C)cc1`, the EC50 is reported as > 112 µM (not active). In the case of `CCC(Cc1ccccc1)NS(=O)(=O)c1c(C)nc2sccn2c1=O` (configuration not stated), the EC50 is reported as > 112 µM (not active). For `COc1ccc(/C=C2\CCc3c2nc2ccccc2c3C(=O)O)cc1OC`, the EC50 was 73.5 µM (active). In the case of `Cc1ccc(CNC(=O)c2cnc3ccccc3n2)cc1`, the EC50 is reported as > 112 µM (not active).

Tested on: not listed separately
Test: cells
Format: functional, cell-based
Conditions: not given
Remark: another data set of the same source
With `CC1CN=C(/C=C(\O)c2ccc(Br)cc2)C(=O)N1` (configuration not stated) the EC50 was 35.6 µM (active). For `CN(C)/C=N/C(=O)c1cn(-c2ccc(F)cc2)c(=O)c2ccccc12`, the EC50 was > 350 µM (not active). For `CCn1c(N2CCC(Cc3ccccc3)CC2)nc2c1c(=O)[nH]c(=O)n2C`, the EC50 was > 350 µM (not active). With `CCCC(C)NC(=O)CN1C(=O)NC2(CCc3ccccc32)C1=O` (configuration not stated) the EC50 was > 350 µM (not active). With `O/C(=C(\C([S-])=Nc1cccc2ccccc12)[n+]1ccccc1)c1cccs1` the EC50 was > 350 µM (not active). In the case of `Cc1ccc(-c2cc(C(=O)Nc3cccnc3)[nH]n2)c(O)c1C`, the EC50 is reported as 7.01 µM (active). In the case of `Cc1cc(C)c(C(=O)N2CCCC(N3CCN(c4cccc(C(F)(F)F)c4)CC3)C2)o1` (configuration not stated), the EC50 is reported as > 350 µM (not active). With `CCOc1ccc2c(c1)c1nnc(SCC3CCCO3)nc1n2C` (configuration not stated) the EC50 was 52.4 µM (active). In the case of `COC(=O)Cc1ccc(NC(S)=NC(C)(C)C)cc1`, the EC50 is reported as > 350 µM (not active).
